Measurements from the CATMoS acute toxicity set (Mansouri et al. 2021).

assay: GHS categories as the set defines them, by LD50: 1 up to 5, 2 up to 50, 3 up to 300, 4 up to 2000, 5 above 2000 mg/kg; conditions: rat; in vivo; po

Row | SMILES | GHS category
1 | CC(C)OC(=O)CCC/C=C\C[C@@H]1[C@@H](CC[C@@H](O)CCc2ccccc2)[C@H](O)C[C@@H]1O | 1
2 | Brc1cc(Oc2cc(Br)c(Br)c(Br)c2Br)c(Br)c(Br)c1Br | 5
3 | Cc1nc2ccccc2c(=O)n1-c1ccccc1C#N | 4
4 | CCC[C@H]1CCO[C@@H](C)S1 | 5
5 | CNC(=O)Oc1cccc2c1OCO2 | 3
6 | O=COC1CCC2CCCCC2C1 (configuration not stated) | 5
7 | CC(C)=CCCC(C)=CC1OCCO1 | 5
8 | CC(O)C(C)O (configuration not stated) | 5
9 | CC[C@H]1OC(=O)C[C@@H](O)[C@H](C)[C@@H](O[C@@H]2O[C@H](C)[C@@H](O[C@H]3C[C@@](C)(O)[C@@H](O)[C@H](C)O3)[C@H](N(C)C)[C@H]2O)[C@@H](CC=O)C[C@@H](C)C(=O)C=CC(C)=C[C@@H]1CO[C@@H]1O[C@H](C)[C@@H](O)[C@@H](OC)[C@H]1OC | 5
10 | CCCOC(=O)c1sc(C(=O)OCCC)c(O)c1O | 4
11 | O=C(O)CCCCCNc1nc(NCCCCCC(=O)O)nc(NCCCCCC(=O)O)n1 | 5
12 | O=C(O)c1cc(Br)nn1-c1ncccc1Cl | 5
13 | CCCCCCCCCCCCCCCCBr | 5
14 | CN1C(CCl)Nc2cc(Cl)c(S(N)(=O)=O)cc2S1(=O)=O (configuration not stated) | 5
15 | CC(=O)OC1CC[C@H]2[C@@H]3CC[C@H]4CC(=O)C=C(C)[C@]4(C)[C@H]3CC[C@]12C (some centres not stated) | 5
16 | CCCC(=O)OCCC(C)CCCC(C)C (configuration not stated) | 5
17 | CN1C(CSCC(F)(F)F)Nc2cc(Cl)c(S(N)(=O)=O)cc2S1(=O)=O (configuration not stated) | 2
18 | CCCNC(=O)c1sc(-c2ccc(OC)cc2)nc1C | 5
19 | CCCOC(=O)[C@H](C)O | 5
20 | CCOC(=O)CCN(C(=O)c1ccc2c(c1)nc(CCl)n2C)c1ccccn1 | 4
21 | CC(C)=CC(C)(C)CC(C)(C)C | 5
22 | COCCOC(=O)C(=O)Nc1nc(-c2ccccc2)cs1 | 5
23 | CCC(O)OCc1c(Cl)ccc(Cl)c1Cl (configuration not stated) | 5

Row | SMILES | GHS category
24 | COc1cc(CC2NCCc3cc(O)c(O)cc32)cc(OC)c1OC (configuration not stated) | 5
25 | Cc1c(C)c2c(c(C)c1OC(=O)C(C)(C)Oc1ccc(Cl)cc1)CC[C@@](C)(CCC[C@H](C)CCC[C@H](C)CCCC(C)C)O2 | 5
26 | CCCS(=O)(=O)Nc1ccc(F)c(C(=O)O)c1F | 5
27 | Nc1ccc(S(=O)(=O)O)cc1N | 5
28 | OCC1=C[C@H](N[C@H]2C[C@H](CO)[C@@H](O[C@@H]3O[C@H](CO)[C@@H](O)[C@H](O)[C@H]3O)[C@H](O)[C@H]2O)[C@H](O)[C@@H](O)[C@@H]1O | 5
29 | CC1CC(NC(N)=O)NC(=O)N1 (configuration not stated) | 5
30 | COC12CC(COC3=CC(=O)CC3)CN(C)C1Cc1cn(C(C)(C)C)c3cccc2c13 (configuration not stated) | 4
31 | COc1nn(-c2cccc(C(F)(F)F)c2)c2ncccc12 | 4
32 | C=C(C)CCC[C@H](C)CCOC(=O)Cc1ccccc1 | 5
33 | O=C(CCl)OC(=O)CCl | 3
34 | O=c1[nH]c(=O)n(C2OC(CO)C(O)C2O)cc1C=CBr (configuration not stated) | 5
35 | C[C@H]1O[C@H](OC[C@H]2O[C@H](O)[C@H](OS(=O)(=O)O)[C@@H](OS(=O)(=O)O)[C@@H]2OS(=O)(=O)O)[C@H](OS(=O)(=O)O)[C@@H](OS(=O)(=O)O)[C@@H]1O | 5
36 | CCN(CC)c1ccc(C=NN(c2ccccc2)c2ccccc2)cc1 | 5
37 | CC(=O)O[C@]1(C(C)=O)CC[C@H]2[C@@H]3C=C(C)C4=CC(=O)CC[C@@H]4[C@H]3CC[C@@]21C | 5
38 | CC(C)c1ccc(S(=O)(=O)O)cc1 | 5
39 | CNC(=O)C(=NNc1ccc([N+](=O)[O-])cc1)C(C)=O | 5
40 | O=C(O)c1c(Cl)c(Cl)c(C(=O)O)c(Cl)c1Cl | 5
41 | CC1(C)S[C@@H]2[C@H](NC(=O)C(N)c3ccccc3)C(=O)N2[C@H]1C(=O)OC1OC(=O)c2ccccc21 (some centres not stated) | 4
42 | CC1CN(S(=O)(=O)c2cccc3cnccc23)CCN1 (configuration not stated) | 4
43 | CC(C)Oc1cccc(NC(=O)c2ccccc2C(F)(F)F)c1 | 5
44 | Fc1ccccc1C1c2ccccc2CCN1c1cccc(C(F)(F)F)c1 (configuration not stated) | 4
45 | FC1(F)COC1(F)F | 4
46 | CCCCOC(=O)c1ccc(-n2nc(OCCCN3CCCCC3)c3ccccc32)cc1 | 4

Row | SMILES | GHS category
47 | C[C@]12CC[C@@H]3c4ccc(O)cc4CC[C@H]3[C@@H]1C[C@@H](O)[C@@H]2O | 5
48 | CC(C)OC(=O)c1cc(C(=O)OC(C)C)cc([N+](=O)[O-])c1 | 5
49 | CCC(Oc1ccc(C(C)(C)CC)cc1C(C)(C)CC)C(=O)O (configuration not stated) | 5
50 | CCC1OC(=O)C(C)C(OC2CC(C)(OC)C(O)C(C)O2)C(C)C(OC2OC(C)CC(N(C)C)C2O)C(C)(O)CC(C)C(=O)C(C)C(O)C1(C)O (configuration not stated) | 5
51 | CCCC(CCC)C(=O)Oc1ccccc1OC | 5
52 | CCc1ccc(OCC=C(C)CCC2OC2(C)C)cc1 (configuration not stated) | 5
53 | CC(C)CCCCCCCOP(=O)(Oc1ccccc1)Oc1ccccc1 | 5
54 | CCCCn1cc2c3c(cccc31)C1=C[C@@H](CO)CN(C)[C@@H]1C2 | 4
55 | Cc1cccc(Nc2cc(Cl)nc(SCC(=O)NCCO)n2)c1C | 5
56 | CCCCCCC(=O)OCC(CC)(COC(=O)CCCCCC)COC(=O)CCCCCC | 5
57 | O=S(=O)(O)c1ccc2c(c1)Nc1cc3nc4ccc(S(=O)(=O)O)cc4nc3cc1N2 | 5
58 | C=CC(C)(CCC=C(C)C)OC(=O)c1ccccc1 (configuration not stated) | 5
59 | CCCCn1c(C)c(CC(=O)O)c2c1CC(C)(C)CC2=O | 5
60 | CCCCCNC(=O)c1ccccc1 | 5
61 | CC(C)CCCCCCCCCCCCCC=CC1CC(=O)OC1=O (configuration not stated) | 5
62 | COc1ccc2[nH]c(C)c(CC(=O)OCC(=O)O)c2c1 | 5
63 | COc1cc2nc(N3CCN(C(=O)CC(C)O)CC3)nc(N)c2cc1OC (configuration not stated) | 5
64 | CCCc1nc2ccnn2c(Cl)c1Cc1ccc(-c2ccccc2-c2nn[nH]n2)cc1 | 4
65 | CO/N=C(/C(=O)N[C@@H]1C(=O)N2C(C(=O)O)=C(COC(C)=O)CS[C@H]12)c1csc(N)n1 | 5
66 | FC(F)(F)c1cccc(C2=CCN(CCc3ccc4ccccc4c3)CC2)c1 | 4
67 | C=C(C)CCCC(C)CCOC(=O)CC (configuration not stated) | 5
68 | CCCCCCCC(=O)N(CCO)CCO | 5
69 | C=CCCCCCCCCC(=O)OCC | 5

Row | SMILES | GHS category
70 | O=C1c2ccc(Br)cc2C(=O)C1(Br)c1ccc2ccccc2c1 (configuration not stated) | 5
71 | Cc1cc(C(C)(CC(=O)OCCOC(=O)CC(C)(c2ccc(O)c(C(C)(C)C)c2)c2ccc(O)c(C(C)(C)C)c2)c2ccc(O)c(C(C)(C)C)c2)cc(C(C)(C)C)c1O (configuration not stated) | 5
72 | CCCCCCCCCC(=O)Nc1ccc(Cc2ccccn2)c([N+](=O)[O-])c1 | 3
73 | O=C1NCCCN1CN1CCOCC1 | 5
74 | CCOC(=O)C(=O)Nc1cc(OC)ncn1 | 4
75 | COC(=O)c1ccccc1S(=O)(=O)NC(=O)Nc1nc(OC(F)F)cc(OC(F)F)n1 | 5
76 | CCCCCOC=O | 5
77 | Cn1c(N)cc(=O)n(C)c1=O | 5
78 | CC[C@@]12C=C(C(=O)OC3OC(=O)c4ccccc43)n3c4c(c5ccccc53)CCN(CCC1)[C@H]42 (some centres not stated) | 5
79 | CNC(=O)c1cc(Cl)cc(C)c1NC(=O)c1cc(Br)nn1-c1ncccc1Cl | 5
80 | CC(C)CCCC(C)C1CCC2C3CCC4CC(OP(=O)(O)O)CCC4(C)C3CCC12C (configuration not stated) | 5
81 | Cc1cc(Cl)ccc1OC(C)C(=O)Nc1ccccc1 (configuration not stated) | 5
82 | CCC(C(=O)Oc1cc(C)ccc1C(C)C)c1ccc(-c2ccccc2)cc1 (configuration not stated) | 5
83 | CCC(=NOC/C=C/Cl)C1=C(O)CC(C2CCOCC2)CC1=O (configuration not stated) | 5
84 | COC(=O)c1ccc(C(=O)Nc2cc(Cl)ccc2Cl)cc1N | 4
85 | Cc1nc(N)sc1C(=O)NCc1ccccc1 | 4
86 | COc1cccc(OC)c1C(=O)O | 4
87 | COCc1cnc(C2=NC(C)(C(C)C)C(=O)N2)c(C(=O)O)c1 (configuration not stated) | 5
88 | CCCCCC(=Cc1ccccc1)C(OCC)OCC | 5
89 | CCCC(=O)c1ccc2c(c1)oc(=O)n2C | 5
90 | CC1CC(OC(=O)COc2cccc(C(F)(F)F)c2)CC(C)(C)C1 (configuration not stated) | 5
91 | CO[Si](CC(C)CC(C)(C)C)(OC)OC (configuration not stated) | 5
92 | CN(C/C=C/C#CC(C)(C)C)Cc1cccc2ccccc12 | 5

Row | SMILES | GHS category
93 | CCCCCCCCCC(=O)OCC(CC)(COC(=O)CCCCCCC)COC(=O)CCCCCCC | 5
94 | COc1ccc([C@@H]2Sc3ccccc3NC(=O)[C@@H]2O)cc1 | 5
95 | CC1CCC(C(C)(C)O)CC1 (configuration not stated) | 5
96 | COC(=O)c1ccccc1S(=O)(=O)NC(=O)Nc1nc(C)nc(OC)n1 | 5
97 | O=C(O)CC[C@@H](C(=O)O)N(CC(=O)O)CC(=O)O | 5
98 | Cc1cc(NC(=O)NC(=O)c2c(F)cccc2F)nc(C)c1-c1ccc(Cl)cc1 | 5
99 | C/C=C(\C)C(=O)O | 5
100 | CCCCC1=NC2(CCCC2)C(=O)N1Cc1ccc(-c2ccccc2C#N)cc1 | 5
101 | Cn1c(=O)n(-c2ccccc2)c2cc(Cl)ccc21 | 4
102 | Cc1cccc(C)c1N(CCCC(=O)O)C(=O)c1ccccc1Cl | 5
103 | Cc1cc(S(=O)(=O)O)c(/N=N/c2c(O)c(C(=O)O)cc3ccccc23)cc1Cl | 5
104 | CCOC(=O)CCCCC(=O)OCC | 4
105 | COC(=O)[C@H]1[C@H]2C[C@@H]3c4[nH]c5cc(OC)ccc5c4CCN3C[C@H]2C[C@@H](OC(=O)/C=C/c2ccc(O)c(OC)c2)[C@@H]1OC | 5
106 | COc1ncc(F)c2nc(S(=O)(=O)Nc3c(F)cccc3F)nn12 | 5
107 | C[N+](C)(C)CC(=O)[O-] | 5
108 | O=C(O)CCCC/C=C(\c1ccccc1)c1cccnc1 | 5
109 | CCCCCCOC(=O)C(C)C | 5
110 | COc1ccc2c(c1)CCN(c1ccccc1)C2c1ccc(O)cc1 (configuration not stated) | 4
111 | COc1ccc2c(c1)CCN(c1ccccc1)C2c1cccc(C(F)(F)F)c1 (configuration not stated) | 4
112 | CCCCCCCCCCCCCCCCCCCCCC(=O)Nc1ccn([C@@H]2O[C@H](CO)[C@@H](O)[C@@H]2O)c(=O)n1 | 4
